Holding throughout (format): cell-based, mouse
In assay [1] the test system is EndMT markers (Klf4, Sca1 and Fsp1). Put plainly: RT-PCR of EndMT markers, freshly isolated brain endothelial cells knockout for CCM3. The settings on record: freshly isolated brain endothelial cells CCM3fl/fl+TAT-Cre; PTC209 72 hours from the day after recombination. The text has this: Brain-derived ECs were isolated from VECPAC/CCM3^fl/fl/R26-Confetti. Brains were processed with two different MiltenyiBiotec kits depending on the age at which the mice were sacrificed: “Adult Brain Dissociation Kit”, for […] 7-days old mice, or “Neural Tissue Dissociation Kit” for less than 7-days old mice. All protocols and data sheet are available at www.milteniyibiotec.com.
Recombination of the loxP-flanked genes was induced by treating cells the day after the first splitting (1:2) with 100 ug/mL TAT-Cre-recombinase for 60 minutes in HyClone™ ADCF-MAb medium (GE Healthcare) without serum followed by 100 uM chloroquine for 30 minutes. The cells were washed with HyClone™ ADCF-MAb medium and cultured with complete medium.
RNA extraction was performed both with (A) RNeasy kits (Promega) or (B) RNAeasy Mini Kit (QIAGEN). The latter allows also the extraction of proteins from the same sample. […] For each sample, the expression level was determined with the comparative threshold cycle (Ct) method, and normalized to the housekeeping genes encoding 18S, glyceraldehyde-3-phosphate dehydrogenase (GAPDH) and hypoxanthine-guanine phosphoribosyltransferase (hprt1). Ct or threshold cycle, represents the PCR cycle at which an increase in reporter fluorescence above a base-line signal can first be detect. […]

Assay [2] relates to CCM3 knock out cells. Here is the method: Cells were seeded 6.3×10^4 cells/cm^2. The day after, PTC209 and UNC1999 were added to the confluent cells. Drugs were left for one or three days depending on the aim of the experiment. Final concentrations used for the two drugs were: 1 uM PTC209 and 5 uM UNC1999.
For immunofluorescence, cells were fixed in three different ways: with 4% PAF in PBS (followed by permeabilization with 0.5% Triton X-100 for 5 minutes); with 1% PAF in triethanolamine pH 7.5, containing 0.1% Triton X-100 and 0.1% NP-40 for 10 minutes at RT or in methanol for 5 minutes at […]. Blocking (1 hour, RT) were performed in PBS containing 2% BSA and 5% donkey serum. Primary (overnight, 4° C.) and secondary (50 minutes, RT) antibodies were incubated in PBS with 2% BSA.
To check the effect of Bmi1 on junctional organisation, both wild type and CCM3 knock out cells were treated with PTC209 with the same experimental conditions described before and subsequently analysed by immunofluorescence. In particular cells were stained for VE-cadherin and PECAM1 (FIG. 7).
Experiment with combined PTC209 and UNC1999 treatments was repeated with the same experimental conditions described before and junction organisation was analysed through VE-cadherin staining and protein expression analysis (FIG. 19).

The test system of assay [3] is EndMT markers (Klf4, Sca1 and Fsp1). Put plainly: Immunofluorescence analysis of EndMT markers, CCM1 knock out cells. The settings on record: CCM1 knockout cells; PTC209 vs DMSO. On the procedure: Treatment with PTC209 was performed with the same experimental conditions used for CCM3 model. After treatment cells were analysed by western blot (FIG. 9), real time (FIG. 10) and immunofluorescence (FIG. 11) analysis. […] This observation resembled what was previously observed for human patients as well as for CCM3 mouse model, namely that mutation in Ccm3 led to a more severe phenotype, with higher risk of cerebral haemorrhage and more severe malformations, compare to patients with mutation in Ccm1 and Ccm2 (Denier et al., 2006).

Assay [4] concerns VE-cadherin and PECAM1. Put plainly: Real time analysis of VE-cadherin and Pecam1 transcripts, CCM1 knock out cells. The settings on record: PTC209. On the procedure:
RNA extraction was performed both with (A) RNeasy kits (Promega) or (B) RNAeasy Mini Kit (QIAGEN). The latter allows also the extraction of proteins from the same sample. The RNA (500 ng) was reverse transcribed with random hexamers (High Capacity cDNA Archive kits; Applied Biosystems) in a final volume of 30 uL. Reaction were made with a thermocycler (Eppendorf) 10 min at 25° C. followed by 2 hours at 37° C. cDNA (5 ng) was amplified in triplicate in a reaction volume of 15 uL using TaqMan Gene Expression Assays (Applied Biosystems) in a ABI/Prism 7900 HT using a pre PCR step of 10 min at 95° C., followed by 40 cycles of 15 seconds at 95° C. and 60 seconds at 60° C. For each sample, the expression level was determined with the comparative threshold cycle (Ct) method, and normalized to the housekeeping genes encoding 18S, glyceraldehyde-3-phosphate dehydrogenase (GAPDH) and hypoxanthine-guanine phosphoribosyltransferase (hprt1). Ct or threshold cycle, represents the PCR cycle at which an increase in reporter fluorescence above a base-line signal can first be detect.
Also for CCM1 model, the inventors tested the effect of Bmi1 inhibition on junction organisation. […]

Assay [5] relates to LEF1. The experiment in a line: Immunofluorescence of LEF1, CCM3 knock out cells. The conditions noted are these: PTC209 vs DMSO. The text has this: The inventors started to analysed interaction between Bmi1 and β-catenin pathway. By immunofluorescence analysis on wild type and CCM3 knock out cells treated with PTC209 and DMSO as control, as already mentioned, the inventors checked expression of LEF1, a transcription factor that is directly activated by β-catenin and is responsible for transcriptional activation of Axin2 (Behrens et al., 1996), to see whether Bmi1 inhibition interfered with β-catenin pathway activation.

SMILES strings stand for the structures. Like-named read-outs stand apart in the source and are kept apart here.

`COc1cc(Br)c(Nc2nc(-c3c(C)nc4ncccn34)cs2)c(Br)c1` [PTC209, N-(2,6-dibromo-4-methoxyphenyl)-4-(2-methylimidazo[1,2-a]pyrimidin-3-yl)thiazol-2-amine]: the “Klf4 expression (RT-PCR)” value in assay [1] was “not downregulated”. In addition, the “Sca1 and Fsp1 expression (RT-PCR)” value in assay [1] is “strongly reduced”. In addition, the “junctional organisation (VE-cadherin, PECAM1 immunostaining)” value in assay [2] (CCM3 knock out cells) was “did not rescue junctional disorganisation”; in assay [2] (wild type cells, CCM3 model) it was “did not disturb junction organisation”. In assay [3], the “upregulation of Klf4, Sca1 and Fsp1 (relative fluorescence intensity)” value was “inhibited”. In assay [4], the “VE-cadherin and PECAM1 transcript levels (gene expression analysis)” value is on record as “did not show any rescue”. Moreover, the “LEF1 (immunofluorescence)” value in assay [5] is reported as “reduced”.

These data come from patent publication US12377092B2, “Polycomb inhibitors and uses thereof” (FONDAZIONE ISTITUTO FIRC DI ONCOLOGIA MOLECOLARE (IFOM), priority 2017, dated 2025).
